{
  "source": "paper PMC5218480",
  "about": "(PLoS ONE, 2017)",
  "test_system": "MV-4-11 cells",
  "experiment": "Gene expression microarray analysis (Affymetrix PrimeView) and GSEA",
  "format": "cell-based, human",
  "set-up": "RFU PODN (11730768_x_at) / Fold change /veh PODN (11730768_x_at) / RFU LINC00158 (11744669_a_at) / Fold change /veh LINC00158 (11744669_a_at) / RFU DUSP10 (11751237_a_at) / Fold change /veh DUSP10 (11751237_a_at) / RFU ID3 (11757404_x_at) / Fold change /veh ID3 (11757404_x_at) / RFU PLEKHG5 (11737974_s_at) / Fold change /veh PLEKHG5 (11737974_s_at) / RFU LRRC4B (11730491_at) / Fold change /veh LRRC4B (11730491_at) / RFU GIMAP4 (11747438_a_at) / Fold change /veh GIMAP4 (11747438_a_at) / RFU KRT8 (11758183_x_at) / Fold change /veh KRT8 (11758183_x_at) / RFU CNN1 (11734310_a_at) / Fold change /veh CNN1 (11734310_a_at) / RFU VPS37D (11726825_at) / Fold change /veh VPS37D (11726825_at) / RFU C10orf10 (11716522_x_at) / Fold change /veh C10orf10 (11716522_x_at) / RFU KIR2DL2 /// KIR2DL4 /// KIR2DL5A /// KIR2DL5B /// KIR2DS1 /// KIR2DS2 /// KIR2DS3 /// KIR2DS4 /// KIR3DL3 /// KIR3DL3 /// KIR3DS1 (11738374_at) / Fold change /veh KIR2DL2 /// KIR2DL4 /// KIR2DL5A /// KIR2DL5B /// KIR2DS1 /// KIR2DS2 /// KIR2DS3 /// KIR2DS4 /// KIR3DL3 /// KIR3DL3 /// KIR3DS1 (11738374_at) / RFU C1QL1 (11718748_at) / Fold change /veh C1QL1 (11718748_at) / RFU TMPRSS4 (11747572_a_at) / Fold change /veh TMPRSS4 (11747572_a_at) / RFU HAMP (11756126_x_at) / Fold change /veh HAMP (11756126_x_at) / RFU RNFT2 (11725882_a_at) / Fold change /veh RNFT2 (11725882_a_at) / RFU NR4A2 (11747474_a_at) / Fold change /veh NR4A2 (11747474_a_at) / RFU ABCC12 (11746883_a_at) / Fold change /veh ABCC12 (11746883_a_at) / RFU TMEM136 (11760407_x_at) / Fold change /veh TMEM136 (11760407_x_at) / RFU CLDN22 /// WWC2 (11732394_at) / Fold change /veh CLDN22 /// WWC2 (11732394_at) / RFU HLA-DPB1 (11760878_x_at) / Fold change /veh HLA-DPB1 (11760878_x_at) / RFU SPINT1 (11716480_a_at) / Fold change /veh SPINT1 (11716480_a_at) / RFU GAP43 (11754022_s_at) / Fold change /veh GAP43 (11754022_s_at) / RFU A4GNT (11735810_at) / Fold change /veh A4GNT (11735810_at) / RFU PRB3 (11715151_x_at) / Fold change /veh PRB3 (11715151_x_at) / RFU TUBB4B (11761932_at) / Fold change /veh TUBB4B (11761932_at) / RFU CAPN14 (11732068_a_at) / Fold change /veh CAPN14 (11732068_a_at) / RFU TMCC2 (11721928_a_at) / Fold change /veh TMCC2 (11721928_a_at) / RFU IRGQ (11745062_a_at) / Fold change /veh IRGQ (11745062_a_at) / RFU FAM174B (11720279_a_at) / Fold change /veh FAM174B (11720279_a_at) / RFU TMPRSS4 (11748680_a_at) / Fold change /veh TMPRSS4 (11748680_a_at) / RFU FAM212B (11763350_a_at) / Fold change /veh FAM212B (11763350_a_at) / RFU PLEKHG5 (11743358_a_at) / Fold change /veh PLEKHG5 (11743358_a_at) / RFU ZSCAN30 (11745921_a_at) / Fold change /veh ZSCAN30 (11745921_a_at) / RFU CMKLR1 (11741424_a_at) / Fold change /veh CMKLR1 (11741424_a_at) / RFU LOC101060620 /// MAPK8IP1 (11723275_at) / Fold change /veh LOC101060620 /// MAPK8IP1 (11723275_at) / RFU SPTSSB (11747773_x_at) / Fold change /veh SPTSSB (11747773_x_at) / RFU PRSS12 (11739890_at) / Fold change /veh PRSS12 (11739890_at) / RFU BIN1 (11741810_x_at) / Fold change /veh BIN1 (11741810_x_at) / RFU WNT11 (11732464_a_at) / Fold change /veh WNT11 (11732464_a_at) / RFU C10orf10 (11716521_a_at) / Fold change /veh C10orf10 (11716521_a_at) / RFU C5orf56 (11738089_at) / Fold change /veh C5orf56 (11738089_at) / RFU CYB561 (11721691_x_at) / Fold change /veh CYB561 (11721691_x_at) / RFU ANKRD19P (11752326_a_at) / Fold change /veh ANKRD19P (11752326_a_at) / RFU OR2T12 /// OR2T33 /// OR2T8 (11738714_s_at) / Fold change /veh OR2T12 /// OR2T33 /// OR2T8 (11738714_s_at) / RFU VCAN (11748164_a_at) / Fold change /veh VCAN (11748164_a_at) / RFU JSRP1 (11732532_at) / Fold change /veh JSRP1 (11732532_at) / RFU KRTAP10-11 (11738290_x_at) / Fold change /veh KRTAP10-11 (11738290_x_at) / RFU MYO3A (11730013_a_at) / Fold change /veh MYO3A (11730013_a_at) / RFU EBF3 (11725865_a_at) / Fold change /veh EBF3 (11725865_a_at) / RFU CAMK2N1 (11719241_x_at) / Fold change /veh CAMK2N1 (11719241_x_at) / RFU C5orf56 (11738088_a_at) / Fold change /veh C5orf56 (11738088_a_at) / RFU OLFML3 (11715873_a_at) / Fold change /veh OLFML3 (11715873_a_at) / RFU LOC100653217 /// NTM (11731650_a_at) / Fold change /veh LOC100653217 /// NTM (11731650_a_at) / RFU MAPK11 (11762145_a_at) / Fold change /veh MAPK11 (11762145_a_at) / RFU FIZ1 (11724087_x_at) / Fold change /veh FIZ1 (11724087_x_at) / RFU OASL (11726364_x_at) / Fold change /veh OASL (11726364_x_at) / RFU SOX15 (11748057_x_at) / Fold change /veh SOX15 (11748057_x_at) / RFU CD79A (11719716_a_at) / Fold change /veh CD79A (11719716_a_at) / RFU HIST1H1D (11736915_at) / Fold change /veh HIST1H1D (11736915_at) / RFU CASKIN2 (11723855_a_at) / Fold change /veh CASKIN2 (11723855_a_at) / RFU LOC730098 (11760151_x_at) / Fold change /veh LOC730098 (11760151_x_at) / RFU OR4N2 (11742367_at) / Fold change /veh OR4N2 (11742367_at) / RFU PRRT2 (11749266_a_at) / Fold change /veh PRRT2 (11749266_a_at) / RFU SNX32 (11753110_a_at) / Fold change /veh SNX32 (11753110_a_at) / RFU CDHR5 (11726645_a_at) / Fold change /veh CDHR5 (11726645_a_at) / RFU RCAN1 (11760418_a_at) / Fold change /veh RCAN1 (11760418_a_at) / RFU FAM167A (11723789_a_at) / Fold change /veh FAM167A (11723789_a_at) / RFU FAM26E (11764081_at) / Fold change /veh FAM26E (11764081_at) / RFU ISYNA1 (11749810_s_at) / Fold change /veh ISYNA1 (11749810_s_at) / RFU ACY1 (11761880_at) / Fold change /veh ACY1 (11761880_at) / RFU 11764098_at / Fold change /veh 11764098_at / RFU SAMD14 (11745864_x_at) / Fold change /veh SAMD14 (11745864_x_at) / RFU NPB (11741838_a_at) / Fold change /veh NPB (11741838_a_at) / RFU TMPRSS6 (11731388_a_at) / Fold change /veh TMPRSS6 (11731388_a_at) / RFU KRTAP10-2 (11738614_at) / Fold change /veh KRTAP10-2 (11738614_at) / RFU ARHGAP8 /// PRR5-ARHGAP8 (11727945_x_at) / Fold change /veh ARHGAP8 /// PRR5-ARHGAP8 (11727945_x_at) / RFU KRTAP5-7 /// NADSYN1 (11734609_at) / Fold change /veh KRTAP5-7 /// NADSYN1 (11734609_at) / RFU RASL12 (11751679_a_at) / Fold change /veh RASL12 (11751679_a_at) / RFU CDKN2B (11736163_a_at) / Fold change /veh CDKN2B (11736163_a_at) / RFU PRF1 (11729649_at) / Fold change /veh PRF1 (11729649_at) / RFU, ZNF638 /// ZNF638-IT1 / Fold change vs veh, ZNF638 /// ZNF638-IT1 / RFU, PANK3 / Fold change vs veh, PANK3 / RFU, SH3YL1 / Fold change vs veh, SH3YL1 / RFU, ZEB2 / Fold change vs veh, ZEB2 / RFU, NRIP1 / Fold change vs veh, NRIP1 / RFU, PTTG1IP / Fold change vs veh, PTTG1IP / RFU, CAPN2 / Fold change vs veh, CAPN2 / RFU, MED14 / Fold change vs veh, MED14 / RFU, SNORA58 / Fold change vs veh, SNORA58 / RFU, C1orf63 / Fold change vs veh, C1orf63 / RFU, LRRFIP1 / Fold change vs veh, LRRFIP1 / RFU, NDUFAF7 / Fold change vs veh, NDUFAF7 / RFU, SLC12A2 / Fold change vs veh, SLC12A2 / RFU, IBTK / Fold change vs veh, IBTK / RFU, ESF1 / Fold change vs veh, ESF1 / Fold change vs veh, TMEM50B / RFU, TAOK1 / Fold change vs veh, TAOK1 / RFU, ACBD3 / Fold change vs veh, ACBD3 / RFU, TMA16 / Fold change vs veh, TMA16 / RFU, RWDD3 / Fold change vs veh, RWDD3 / RFU, BCAT1 / Fold change vs veh, BCAT1 / RFU, EDEM3 / Fold change vs veh, EDEM3 / RFU, TMEM33 / Fold change vs veh, TMEM33 / RFU, WDR75 / Fold change vs veh, WDR75 / RFU, AHCTF1 / Fold change vs veh, AHCTF1 / RFU, TFRC / Fold change vs veh, TFRC / RFU, ZDHHC17 / Fold change vs veh, ZDHHC17 / RFU, NOM1 / Fold change vs veh, NOM1 / RFU, ARL8B / Fold change vs veh, ARL8B / RFU, ZBTB11 / Fold change vs veh, ZBTB11 / RFU, TAMM41 / Fold change vs veh, TAMM41 / RFU, KIAA1704 /// LOC100996395 / Fold change vs veh, KIAA1704 /// LOC100996395 / RFU, ING1 / Fold change vs veh, ING1 / RFU, TRMT61B / Fold change vs veh, TRMT61B / RFU, FUBP3 / Fold change vs veh, FUBP3 / RFU, TP53 / Fold change vs veh, TP53 / RFU, TNKS2 / Fold change vs veh, TNKS2 / RFU, ZFP14 / Fold change vs veh, ZFP14 / RFU, ACTR2 / Fold change vs veh, ACTR2 / RFU, PPP3R1 / Fold change vs veh, PPP3R1 / RFU, PIK3R1 / Fold change vs veh, PIK3R1 / RFU, HNRNPA1 / Fold change vs veh, HNRNPA1 / RFU, RNF170 / Fold change vs veh, RNF170 / RFU, ZNF28 / Fold change vs veh, ZNF28 / RFU, RNGTT / Fold change vs veh, RNGTT / RFU, OGT / Fold change vs veh, OGT / RFU, BRD1 / Fold change vs veh, BRD1 / RFU, MARS / Fold change vs veh, MARS / RFU, ZNF655 / Fold change vs veh, ZNF655 / RFU, FAHD1 / Fold change vs veh, FAHD1 / RFU, BDP1 / Fold change vs veh, BDP1 / RFU, LRRCC1 / Fold change vs veh, LRRCC1 / RFU, ARID1A / Fold change vs veh, ARID1A / RFU, ZNF146 / Fold change vs veh, ZNF146 / RFU, ZNF330 / Fold change vs veh, ZNF330 / RFU, GPN3 / Fold change vs veh, GPN3 / RFU, C9orf123 / Fold change vs veh, C9orf123 / RFU, N4BP2L2 / Fold change vs veh, N4BP2L2 / RFU, ARFIP1 / Fold change vs veh, ARFIP1 / RFU, FAM179B / Fold change vs veh, FAM179B / RFU, BCL10 / Fold change vs veh, BCL10 / RFU, UHRF1BP1L / Fold change vs veh, UHRF1BP1L / RFU, BET1 / Fold change vs veh, BET1 / RFU, CNOT2 / Fold change vs veh, CNOT2 / RFU, ZNF268 / Fold change vs veh, ZNF268 / Fold change vs veh, ZNF507 / RFU, DGCR2 / Fold change vs veh, DGCR2 / RFU, WDSUB1 / Fold change vs veh, WDSUB1 / Fold change vs veh, HSP90B1 /// MIR3652 / RFU, ADSS / Fold change vs veh, ADSS / RFU, GK / Fold change vs veh, GK / RFU, ZNF148 / Fold change vs veh, ZNF148 / RFU, TAF9 / Fold change vs veh, TAF9 / RFU, SLC1A5 / Fold change vs veh, SLC1A5 / RFU, SLMO2 / Fold change vs veh, SLMO2 / RFU, ABCC4 / Fold change vs veh, ABCC4 / RFU, LOC101060439 /// RAP1B / Fold change vs veh, LOC101060439 /// RAP1B / RFU, RFX7 / Fold change vs veh, RFX7 / RFU, GTPBP10 / Fold change vs veh, GTPBP10 / RFU, CNEP1R1 / Fold change vs veh, CNEP1R1 / RFU, BIVM-ERCC5 /// ERCC5 / Fold change vs veh, BIVM-ERCC5 /// ERCC5 / RFU, ILF3 / Fold change vs veh, ILF3 / RFU 11762660_at / Fold change /veh 11762660_at / RFU VCAN (11757783_s_at) / Fold change /veh VCAN (11757783_s_at) / RFU DDX43 (11728927_at) / Fold change /veh DDX43 (11728927_at) / RFU KRT8 (11758188_x_at) / Fold change /veh KRT8 (11758188_x_at) / RFU NKD1 (11759106_at) / Fold change /veh NKD1 (11759106_at) / RFU SRD5A1 (11742802_a_at) / Fold change /veh SRD5A1 (11742802_a_at) / RFU TPSAB1 /// TPSB2 (11721975_s_at) / Fold change /veh TPSAB1 /// TPSB2 (11721975_s_at) / RFU GSTM3 (11746129_a_at) / Fold change /veh GSTM3 (11746129_a_at) / RFU IL23R (11737362_x_at) / Fold change /veh IL23R (11737362_x_at) / RFU TMEM51 (11727254_a_at) / Fold change /veh TMEM51 (11727254_a_at) / RFU PIWIL2 (11732686_x_at) / Fold change /veh PIWIL2 (11732686_x_at) / RFU ORM1 (11744905_x_at) / Fold change /veh ORM1 (11744905_x_at) / RFU CCDC152 (11743942_at) / Fold change /veh CCDC152 (11743942_at) / RFU ECM1 (11717891_a_at) / Fold change /veh ECM1 (11717891_a_at) / RFU IL23R (11748794_a_at) / Fold change /veh IL23R (11748794_a_at) / RFU TNFAIP8L3 (11732012_x_at) / Fold change /veh TNFAIP8L3 (11732012_x_at) / RFU MBOAT4 (11741988_at) / Fold change /veh MBOAT4 (11741988_at) / RFU 11764193_at / Fold change /veh 11764193_at / RFU TMEM53 (11763286_at) / Fold change /veh TMEM53 (11763286_at) / RFU MAGEB2 (11727129_at) / Fold change /veh MAGEB2 (11727129_at) / RFU TMEM200A (11744735_a_at) / Fold change /veh TMEM200A (11744735_a_at) / RFU CCDC152 (11751479_a_at) / Fold change /veh CCDC152 (11751479_a_at) / RFU FAM211A (11726209_a_at) / Fold change /veh FAM211A (11726209_a_at) / RFU RGS16 (11746705_a_at) / Fold change /veh RGS16 (11746705_a_at) / RFU VCAN (11755009_s_at) / Fold change /veh VCAN (11755009_s_at) / RFU RHOB (11743442_s_at) / Fold change /veh RHOB (11743442_s_at) / RFU RGS16 (11720943_a_at) / Fold change /veh RGS16 (11720943_a_at) / RFU RGS16 (11720944_at) / Fold change /veh RGS16 (11720944_at) / RFU, VPS4B / Fold change vs veh, VPS4B / RFU, CREB1 / Fold change vs veh, CREB1 / RFU, DNAJC13 / Fold change vs veh, DNAJC13 / RFU, GNAQ / Fold change vs veh, GNAQ / RFU, CDK5R1 / Fold change vs veh, CDK5R1 / RFU, ZRANB3 / Fold change vs veh, ZRANB3 / RFU, CUL4A / Fold change vs veh, CUL4A / RFU, CCNY / Fold change vs veh, CCNY / RFU, UFL1 / Fold change vs veh, UFL1 / RFU, COG3 / Fold change vs veh, COG3 / RFU, DIAPH2 / Fold change vs veh, DIAPH2 / RFU, SKA2 / Fold change vs veh, SKA2 / RFU, AFF3 / Fold change vs veh, AFF3 / RFU, LMF1 / Fold change vs veh, LMF1 / RFU, IPO11 / Fold change vs veh, IPO11 / RFU, DFFB / Fold change vs veh, DFFB / RFU, FOXP1 / Fold change vs veh, FOXP1 / RFU, CARD8 / Fold change vs veh, CARD8 / RFU, STRN3 / Fold change vs veh, STRN3 / RFU, ADK / Fold change vs veh, ADK / RFU, RASSF2 / Fold change vs veh, RASSF2 / RFU, WIPF1 / Fold change vs veh, WIPF1 / RFU, LARP1B / Fold change vs veh, LARP1B / RFU, RASA1 / Fold change vs veh, RASA1 / RFU, RB1 / Fold change vs veh, RB1 / RFU, PPFIA1 / Fold change vs veh, PPFIA1 / RFU, MAT2A / Fold change vs veh, MAT2A / RFU, CCT5 / Fold change vs veh, CCT5 / RFU, WDR92 / Fold change vs veh, WDR92 / RFU, CUX1 / Fold change vs veh, CUX1 / RFU, TTC7A / Fold change vs veh, TTC7A / RFU, TMEM135 / Fold change vs veh, TMEM135 / RFU, DEPTOR / Fold change vs veh, DEPTOR / RFU, CPM / Fold change vs veh, CPM / RFU, DNAJB6 / Fold change vs veh, DNAJB6 / RFU, CACNA2D3 / Fold change vs veh, CACNA2D3 / RFU, DTX4 / Fold change vs veh, DTX4 / RFU, TFCP2 / Fold change vs veh, TFCP2 / RFU, GMCL1 /// GMCL1P1 / Fold change vs veh, GMCL1 /// GMCL1P1 / RFU, AEBP2 / Fold change vs veh, AEBP2 / RFU, SNHG1 /// SNORD22 /// SNORD25 /// SNORD26 /// SNORD27 /// SNORD28 /// SNORD29 /// SNORD31 / Fold change vs veh, SNHG1 /// SNORD22 /// SNORD25 /// SNORD26 /// SNORD27 /// SNORD28 /// SNORD29 /// SNORD31 / Fold change (Aza/veh), C12orf56 (ProbeSet 11735607_a_at) / Fold change (ACY-1035/veh), C12orf56 (ProbeSet 11735607_a_at) / Fold change (Aza/veh), FGFR1OP (ProbeSet 11751329_s_at) / Fold change (ACY-1035/veh), FGFR1OP (ProbeSet 11751329_s_at) / Fold change (Aza/veh), VPS36 (ProbeSet 11739960_a_at) / Fold change (ACY-1035/veh), VPS36 (ProbeSet 11739960_a_at) / RFU SYPL1 (11715823_x_at) / Fold change /veh SYPL1 (11715823_x_at) / RFU IGFBP7 (11715501_s_at) / Fold change /veh IGFBP7 (11715501_s_at) / RFU REEP3 (11722064_at) / Fold change /veh REEP3 (11722064_at) / RFU IGLL1 (11728026_x_at) / Fold change /veh IGLL1 (11728026_x_at): dose or concentration left out as unconfirmed",
  "conditions": "ProbeSet 11729384_s_at; LIST D",
  "data": [
    {"smiles": "Nc1ccc(-c2cccs2)cc1NC(=O)c1ccc2c(c1)cc(C1CC1)n2CCN1CCOCC1", "note": "[ACY-1035]", "values": [
      {"measurement": "Fold change vs veh, CCNY", "result": 0.87}
    ]}
  ]
}
